Values after ≈ are worked out from the molar mass of the structure shown.
conditions: buffer; pH 7.4; 200.0 µM

| solubility kinetic [µg/mL] | Structure (SMILES) |
| --- | --- |
| 2.4 (≈ 8.62 µM) | N#C/C(=C\c1ccc(O)cc1)C(=O)NCc1ccccc1 |
| 4 (≈ 12.2 µM) | COC(=O)c1ccc(C(=O)NC2CCSc3ccccc32)cc1 (stereo unspecified) |
| 40.6 (≈ 124 µM) | O=C(Nc1ccc(F)cc1)C(NC1CCCCC1)c1ccccc1 (stereo unspecified) |
| < 0.7 | O=C(Nc1ccccc1F)C(c1ccccc1)c1ccccc1 |
| 38.4 (≈ 143 µM) | NC(=O)C1CCN(CC(=O)Nc2nccs2)CC1 |
| > 45.4 | Cn1cnnc1SCC(=O)NC1CCCc2ccccc21 (stereo unspecified) |
| < 0.7 | COc1ccc(NC(=O)c2ccccc2Oc2ccccc2)c(OC)c1 |
| 44.6 (≈ 142 µM) | CC1CCCC(NC(=O)COc2ncnc3ccccc23)C1C (stereo unspecified) |
| > 53.8 | CC(OC(=O)CN1C(=O)c2ccccc2C1=O)C(=O)NC1CCCCC1 (stereo unspecified) |
| 12.4 (≈ 33.9 µM) | Cc1cccc(C(=O)N2CCCC(c3nc(-c4ccc(F)cc4)no3)C2)c1 (stereo unspecified) |
| 8.8 (≈ 26.2 µM) | O=C(CSc1nc2c(c(=O)[nH]1)CCC2)Nc1ccccc1Cl |
| 44.3 (≈ 148 µM) | CC1(C)C(=O)N(c2ccccc2Cl)C(=O)c2ccccc21 |
| > 38.3 | Cc1ccc(Nc2ncnc3sccc23)c(C)c1 |
| 0.5 | CCN(CC)c1nc(-c2ccccc2)nc2ccccc12.Cl |
| 55.3 (≈ 135 µM) | CC(C)c1ccc(NC(=O)c2ccccc2NC(=O)C2CCCCC2C(=O)O)cc1 (stereo unspecified) |
| > 44.5 | Cc1ccc(NC(=O)CCN2CCC(C)CC2)cc1.Cl |
| > 42.2 | O=C(Cc1c(Cl)cccc1Cl)Nc1ccncc1 |
| > 46.2 | CC1CCN(Cc2cc(=O)oc3cc(O)c(Cl)cc23)CC1 |
| 33.5 (≈ 108 µM) | CC(C)C(CCNC1CCN(C)CC1)c1ccc(Cl)cc1 (stereo unspecified) |
| > 52.1 | COc1ccc(NC(=O)CN(C)CC(=O)NC2CCC(C)CC2)cc1 (stereo unspecified) |
| 34.3 (≈ 117 µM) | CC(=O)c1ccc(NC(=O)N2CCc3ccccc3C2)cc1 |
| 0.6 (≈ 1.77 µM) | S=C(NCCc1ccccc1)Nc1ccc(N2CCCCC2)cc1 |

| solubility kinetic [µg/mL] | Structure (SMILES) |
| --- | --- |
| 52.3 (≈ 112 µM) | CSCCC1NC(=O)N(CC(=O)Nc2cccc(S(=O)(=O)N3CCCCCC3)c2)C1=O (stereo unspecified) |
| > 51.3 | CC(=O)C1=C(O)C(=O)N(Cc2ccccc2)C1c1ccc(Cl)cc1 (stereo unspecified) |
| 1.1 (≈ 3.39 µM) | O=C(COc1ccccc1F)NCc1ccc(-n2cccc2)cc1 |
| 1.6 (≈ 4.81 µM) | Cc1cccc(C(=O)O/N=C(\N)CS(=O)(=O)c2ccccc2)c1 |
| 7.8 | Cc1ccccc1C(=O)N1CCN(C(c2ccccc2)c2ccccc2)CC1.Cl |
| > 62.5 | COc1ccc(C(=O)NCC(=O)N2CCN(C(=O)c3ccco3)CC2)cc1[N+](=O)[O-] |
| > 47.9 | CCCn1nc(Oc2nc(N(C)C)nc(N(C)C)n2)ccc1=O |
| < 0.6 | Cc1cccc(N/C=C/C(=O)c2ccc(Cl)cc2)c1 |
| 45.8 (≈ 126 µM) | COc1ccccc1NC(=S)N(Cc1ccccc1)Cc1cccnc1 |
| 23.4 (≈ 123 µM) | Cc1cccnc1NC(=O)C1CCC1 |
| 1.2 (≈ 3.9 µM) | COc1cc2nc(Cl)nc(N3CCCCC3)c2cc1OC |
| 0.4 (≈ 1.36 µM) | CC1(C)CC(=O)c2cnc(N3CCc4ccccc43)nc2C1 |
| 39.9 (≈ 109 µM) | Cc1ccccc1CC1CCN(CCCNC(=O)Nc2ccccc2)CC1 |
| > 37.7 | Cc1cc(C(=O)N2CCC(C(=O)O)CC2)c(C)o1 |
| 43.7 (≈ 146 µM) | O=C(O)CC(c1ccccc1F)N1Cc2ccccc2C1=O (stereo unspecified) |
| 22.4 | C=CCn1c(SCCCC)nc([O-])cc1=O.[NH4+] |
| > 41.9 | CCC(=O)Nc1ccc2c(c1)ncn2-c1ccc(C)cc1 |
| 0.8 (≈ 2.52 µM) | COc1ccc(-c2cc(-c3ccc(O)cc3)nc(N)c2C#N)cc1 |
| > 49.9 | CCS(=O)(=O)N1CCN(C(=O)c2cccc3ccccc23)CC1 |
| > 48.7 | O=C(N/C(=C/c1ccccc1)C(=O)N1CCCCC1)c1ccco1 |
| 28.8 (≈ 140 µM) | Cc1ccc(N=C(N)N=C(N)N)c(C)c1 |
| 40.5 (≈ 148 µM) | COc1ccc(NC(=O)CNC(=O)c2ccco2)cc1 |

| solubility kinetic [µg/mL] | Structure (SMILES) |
| --- | --- |
| > 40.7 | O=C(NCCCCc1ccccc1)c1ccccc1F |
| 2.3 (≈ 7.25 µM) | O=S(=O)(Oc1ccccc1N1CCCCC1)c1ccccc1 |
| > 40.8 | Cl.ClCCN1C2=NCCCN2c2ccccc21 |
| 0.8 (≈ 2.85 µM) | CCc1ccc2oc(-c3ccc(NC(C)=O)cc3)nc2c1 |
| > 48.9 | O=S(=O)(Nc1ccc(Cl)cc1)c1cccc2nsnc12 |
| > 45.5 | O=C(COC(=O)c1ccco1)NCc1ccc2c(c1)OCO2 |
| > 43.1 | O=C(COC(=O)c1cnccn1)c1ccc([N+](=O)[O-])cc1 |
| 51.3 (≈ 149 µM) | COc1ccc(CCNC(=O)Cc2ccc([N+](=O)[O-])cc2)cc1OC |
| 16.3 (≈ 51 µM) | CCC1CCCCN1Cc1nc(Cc2ccccc2Cl)no1 (stereo unspecified) |
| > 52.6 | COc1ccc(Nc2nnc(SC(C)C(=O)NC3CC3)s2)cc1 (stereo unspecified) |
| > 33.2 | NC(=S)Nc1ccc(Cl)c(Cl)c1 |
| 4.4 | Cc1ccc(Cl)c(OCCN2CCc3ccccc3C2)c1.Cl |
| > 48.2 | Cc1ccc(NC(=O)COC(=O)C2CCC(=O)N2)c([N+](=O)[O-])c1 (stereo unspecified) |
| < 0.4 | CC12CC3(C)CC(C)(C1)CC(C(=O)NC(=S)N1CCCC1)(C2)C3 |
| > 62.2 | CCOc1ccccc1NC(=O)c1ccc(OCC(=O)N2CCOCC2)c(OC)c1 |
| > 38.3 | C#CCOC(=O)Nc1cc(C)n(-c2ccccc2)n1 |
| 0.5 (≈ 1.76 µM) | Cc1ccccc1OCCn1c(=S)[nH]c2ccccc21 |
| > 47.6 | O=C(O)c1cccc(N2C(=O)c3cccc4cccc(c34)C2=O)c1 |
| 0.2 (≈ 0.663 µM) | Cc1cccc(Nc2nc(-c3sc(C)nc3C)cs2)c1 |
| > 43.7 | COc1ccc(NC(=O)COC(=O)CC2CCCC2)cc1 |
| > 48.5 | O=C(Nc1cccc(NC(=O)c2cccs2)c1)c1cccnc1 |
| > 47 | CC(=O)N/C(=C\c1ccc(F)cc1)C(=O)OCc1ccccc1 |

| solubility kinetic [µg/mL] | Structure (SMILES) |
| --- | --- |
| > 43.1 | O=C1NC2=C(C(=O)CCC2)C(c2cccc([N+](=O)[O-])c2)N1 (stereo unspecified) |
| 0.9 (≈ 2.89 µM) | CC1CCN(CC(=O)Nc2ccc(Cl)cc2[N+](=O)[O-])CC1 |
| 8 (≈ 24.8 µM) | Cn1c(N)c(Br)c(-c2ccc(F)cc2)c(C#N)c1=O |
| < 0.4 | FC(F)(F)Sc1ccc(NC(=S)NCc2ccccc2)cc1 |
| 40.8 (≈ 141 µM) | O=S(=O)(NCCN1CCCC1)c1ccc(Cl)cc1 |
| 38 (≈ 130 µM) | Nc1ncccc1C(=O)OCC(=O)NC1CCCCCC1 |
| 6.1 (≈ 14.4 µM) | Cc1ccc(NC(=O)CCc2ccc(S(=O)(=O)N3CCOCC3)cc2)c(Cl)c1 |
| < 0.7 | CCOC(=O)c1c(C)[nH]c(C(=O)OCc2ccccc2F)c1C |
| > 34 | N=C1SCC(=O)N1c1ccc(Cl)cc1 |
| > 41.3 | Cc1ccccc1NC(=S)NNC(=O)c1ccco1 |
| 25.9 (≈ 102 µM) | O=C1C2C3C=CC(CC3)C2C(=O)N1c1ccccc1 (stereo unspecified) |
| 11.2 (≈ 35.2 µM) | O=C1CSC(c2cccc([N+](=O)[O-])c2)N1C1CC2CCC1C2 (stereo unspecified) |
| 33.2 (≈ 117 µM) | CC(C)CN(CC(C)C)C(=O)Nc1ccc(F)cc1F |
| 42.1 | CNc1nc(-c2ccccc2)[n+](-c2ccc(C)cc2)s1.[Br-] |
| 7.9 (≈ 23.2 µM) | CC(=O)N1CCN(c2nc3ccc(Br)cc3s2)CC1 |
| > 33.2 | CNC(=O)CNC(=O)Nc1ccc(C)cc1 |
| > 44.9 | NC1=NC(=O)CC(C(=O)Nc2cccc3ccccc23)S1 (stereo unspecified) |
| 7.9 (≈ 23.3 µM) | Cc1ccc(S(=O)(=O)C(C#N)=C2N(C)c3ccccc3N2C)cc1 |
| 20.9 (≈ 74.6 µM) | O=C(NCc1ccccc1F)c1ccc2ccccc2n1 |

| Structure (SMILES) | solubility kinetic [µg/mL] |
| --- | --- |
| CC(Cc1ccccc1)N1C(=O)c2ccccc2C1=O (stereo unspecified) | 10.6 (≈ 40 µM) |

From PubChem BioAssay AID1996
